PubChem BioAssay AID330 (DTP/NCI, 2004)
Several values for one entry are separate records, joined by “and”; a condition that tells them apart may be missing. Equal values may be shown once. Toxic doses and inconclusive results are not listed. How the source made its calls: active means survival T/C of 150% or more; inactive means T/C below 125% in these data.

Test system: P388 leukemia ip, CD2F1 mice, survival T/C
Test: NCI In Vivo Anticancer Drug Screen. Data for tumor model P388 Leukemia (intraperitoneal) in CD2F1 (CDF1) mice
Settings: endpoint: median survival time, higher = longer survival
Summary of the method: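 Mice carrying the transplanted tumor received test compound or vehicle. Survival was recorded in each group, and the value is the treated-group measurement divided by that of the vehicle-treated control group.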

[1] = dose: 100.0 mg/kg/injection, schedule: Q04DX003 (ip), vehicle: saline with Tween-80
[2] = dose: 200.0 mg/kg/injection, schedule: Q04DX003 (ip), vehicle: saline with Tween-80
[3] = dose: 100.0 mg/kg/injection, schedule: Q01DX009 (ip), vehicle: saline with Tween-80
[4] = dose: 200.0 mg/kg/injection, schedule: Q01DX009 (ip), vehicle: saline with Tween-80
[5] = dose: 400.0 mg/kg/injection, schedule: Q04DX003 (ip), vehicle: saline with Tween-80
[6] = dose: 50.0 mg/kg/injection, schedule: Q01DX005 (ip), vehicle: saline with Tween-80
[7] = dose: 100.0 mg/kg/injection, schedule: Q01DX005 (ip), vehicle: saline with Tween-80
[8] = dose: 200.0 mg/kg/injection, schedule: Q01DX005 (ip), vehicle: saline with Tween-80
[9] = dose: 50.0 mg/kg/injection, schedule: Q01DX009 (ip), vehicle: saline with Tween-80
[10] = dose: 50.0 mg/kg/injection, schedule: Q01DX005 (ip), vehicle: Klucel (hydroxypropylcellulose) (HPC)
[11] = dose: 100.0 mg/kg/injection, schedule: Q01DX005 (ip), vehicle: Klucel (hydroxypropylcellulose) (HPC)
[12] = dose: 200.0 mg/kg/injection, schedule: Q01DX005 (ip), vehicle: Klucel (hydroxypropylcellulose) (HPC)
[13] = dose: 100.0 mg/kg/injection, schedule: Q04DX003 (ip), vehicle: Klucel (hydroxypropylcellulose) (HPC)
[14] = dose: 200.0 mg/kg/injection, schedule: Q04DX003 (ip), vehicle: Klucel (hydroxypropylcellulose) (HPC)

Measured: T/C

O=C(O)CCc1c(-c2ccccc2)[nH]c2ccccc12
inactive: dose: 60.0 mg/kg/injection, schedule: Q01DX005 (ip), vehicle: Klucel + Tween-80 100 % of control | dose: 120.0 mg/kg/injection, schedule: Q01DX005 (ip), vehicle: Klucel + Tween-80 100 % of control | dose: 240.0 mg/kg/injection, schedule: Q01DX005 (ip), vehicle: Klucel + Tween-80 100 % of control

COc1ccc(N=Nc2c(O)n(-c3ccc(Br)cc3)c(=S)n(-c3ccc(OC)cc3)c2=O)cc1
inactive: [1] 96 % of control | [2] 87 % of control

S=C(NC1CCCCC1)NC1CCCCC1
inactive: [3] 90 % of control | [1] 95 % of control | [4] 90 % of control | [2] 90 % of control | dose: 400.0 mg/kg/injection, schedule: Q01DX009 (ip), vehicle: saline with Tween-80 86 % of control | [5] 90 % of control

C/C(NCCc1ccccc1)=C1\CCOC1=O
inactive: dose: 50.0 mg/kg/injection, schedule: Q01DX001 (ip), vehicle: Klucel (hydroxypropylcellulose) (HPC) 101 % of control | dose: 100.0 mg/kg/injection, schedule: Q01DX001 (ip), vehicle: Klucel (hydroxypropylcellulose) (HPC) 96 % of control | dose: 200.0 mg/kg/injection, schedule: Q01DX001 (ip), vehicle: Klucel (hydroxypropylcellulose) (HPC) 104 % of control

COC(=O)C1=CO[C@@H](C)[C@@H]2CN3CCc4c([nH]c5ccc(OC)cc45)[C@@H]3C[C@H]12
inactive: [6] 106 % of control | [7] 101 % of control | [8] 105 % of control

Cc1ccc(N2CCOS(=O)OCC2)cc1
inactive: [6] 101 % of control | [7] 98 % of control | [8] 101 % of control

O=c1c2[nH]c3ccccc3sc=2c(=O)c2ccccc12
inactive: [9] 90 % of control | [3] 91 % of control | [4] 106 % of control

CC(C)N=C1NS(=O)(=O)c2ccccc21
inactive: [6] 114 % of control | [7] 97 % of control | [8] 108 % of control

CN1CCN(CCCO)CC1
inactive: dose: 50.0 mg/kg/injection, schedule: Q01DX005 (ip), vehicle: saline 105 % of control | dose: 100.0 mg/kg/injection, schedule: Q01DX005 (ip), vehicle: saline 97 % of control | dose: 200.0 mg/kg/injection, schedule: Q01DX005 (ip), vehicle: saline 104 % of control

CCOC(=O)c1n[nH]c(C)c1C/C(=N/O)c1ccccc1
inactive: [6] 103 % of control | [7] 92 % of control | [8] 92 % of control

CC(=O)NCC(=O)c1ccc(Cl)cc1
inactive: [1] 120 % of control | [2] 120 % of control | [5] 105 % of control

CCCCCn1[nH]nc(C(=O)OC)c1=O (tested in a mixture with another compound)
inactive: [10] 102 % of control | [11] 95 % of control | [12] 103 % of control

CN(C)CCN1CC2Cc3ccccc3C1c1ccccc12 (stereo not drawn)
inactive: [13] 102 % of control | [14] 102 % of control

N#CC(NCc1ccccc1)c1ccc2c(c1)OCO2 (stereo not drawn)
inactive: dose: 25.0 mg/kg/injection, schedule: Q01DX009 (ip), vehicle: saline with Tween-80 90 % of control

COC(=O)Nc1nc2ccc(C(=O)c3ccccc3)cc2[nH]1
active: dose: 32.0 mg/kg/injection, schedule: Q04DX003 (ip), vehicle: saline with Tween-80 202 % of control | dose: 64.0 mg/kg/injection, schedule: Q04DX003 (ip), vehicle: saline with Tween-80 190 % of control | dose: 80.0 mg/kg/injection, schedule: Q04DX003 (ip), vehicle: other 192 % of control | dose: 1280.0 mg/kg/injection, schedule: Q04DX003 (oral), vehicle: saline 165 % of control
inactive: dose: 2.0 mg/kg/injection, schedule: Q04DX003 (ip), vehicle: saline with Tween-80 100 % of control | dose: 4.0 mg/kg/injection, schedule: Q04DX003 (ip), vehicle: saline with Tween-80 100 % of control | dose: 8.0 mg/kg/injection, schedule: Q04DX003 (ip), vehicle: saline with Tween-80 113 % of control | dose: 16.0 mg/kg/injection, schedule: Q04DX003 (ip), vehicle: saline with Tween-80 118 % of control | dose: 80.0 mg/kg/injection, schedule: Q04DX003 (oral), vehicle: other 112 % of control and 113 % of control | dose: 80.0 mg/kg/injection, schedule: Q04DX003 (oral), vehicle: saline 98 % of control | dose: 320.0 mg/kg/injection, schedule: Q04DX003 (oral), vehicle: saline 115 % of control

CCOC(=O)N1CCC23C=C(OC)C(=O)C=C2C1CC1=C3C(=O)C(OC)=CC1=O (stereo not drawn)
inactive: dose: 100.0 mg/kg/injection, schedule: Q01DX001 (ip), vehicle: saline 101 % of control | dose: 200.0 mg/kg/injection, schedule: Q01DX001 (ip), vehicle: saline 97 % of control | dose: 400.0 mg/kg/injection, schedule: Q01DX001 (ip), vehicle: saline 105 % of control

CSc1ccccc1C(=O)O
inactive: dose: 100.0 mg/kg/injection, schedule: Q04DX002 (ip), vehicle: saline with Tween-80 104 % of control | dose: 200.0 mg/kg/injection, schedule: Q04DX002 (ip), vehicle: saline with Tween-80 101 % of control | dose: 400.0 mg/kg/injection, schedule: Q04DX002 (ip), vehicle: saline with Tween-80 102 % of control

CCOC(=O)C1=C(c2ccccc2)Nc2ccccc2[S+]1C (stereo not drawn)
inactive: dose: 15.0 mg/kg/injection, schedule: Q01DX005 (ip), vehicle: saline 99 % of control | dose: 30.0 mg/kg/injection, schedule: Q01DX005 (ip), vehicle: saline 98 % of control | dose: 60.0 mg/kg/injection, schedule: Q01DX005 (ip), vehicle: saline 98 % of control and 96 % of control

O=c1[nH]cnc(O)c1C1C=CC=CC=C1
inactive: [10] 105 % of control | [11] 114 % of control

O=C(NNc1ncccn1)c1ccc(C(=O)NNc2ncccn2)cc1
inactive: dose: 7.5 mg/kg/injection, schedule: Q01DX005 (ip), vehicle: saline with Tween-80 94 % of control | dose: 15.0 mg/kg/injection, schedule: Q01DX005 (ip), vehicle: saline with Tween-80 93 % of control

O=[N+]([O-])c1ccc(-c2nnn(Cc3ccco3)c2N2CCCCC2)cc1
inactive: [10] 105 % of control | [11] 105 % of control | [12] 107 % of control

O=C(OCC(Cl)(Cl)Cl)N1C2C=CC(C3OC32)N1C(=O)OCC(Cl)(Cl)Cl (stereo not drawn)
inactive: dose: 50.0 mg/kg/injection, schedule: Q01DX009 (ip), vehicle: suspension in saline 88 % of control | dose: 100.0 mg/kg/injection, schedule: Q01DX009 (ip), vehicle: suspension in saline 90 % of control | dose: 200.0 mg/kg/injection, schedule: Q01DX009 (ip), vehicle: suspension in saline 98 % of control

O=C1CN(Cc2ccc(Cl)cc2)CC(=O)N2Cc3ccccc3CN12
inactive: [6] 102 % of control | [7] 104 % of control | [8] 103 % of control

CC1CN(C(=O)/C=C/C(=O)OC2CCCCC2)CCN1C(=O)/C=C/C(=O)OC1CCCCC1 (stereo not drawn)
inactive: [10] 100 % of control | [11] 100 % of control | [12] 98 % of control

CNC1CC2OC(C)(C1OC)n1c3ccccc3c3c4c(c5c6ccccc6n2c5c31)C(=O)NC4 (stereo not drawn)
inactive: dose: 0.75 mg/kg/injection, schedule: Q01DX005 (ip), vehicle: water 120 % of control | dose: 1.5 mg/kg/injection, schedule: Q01DX005 (ip), vehicle: water 90 % of control

Cc1ccc(C(=N)c2ccccc2Cc2cccc3ccccc23)c(C)c1
inactive: [9] 92 % of control | [3] 94 % of control | [4] 96 % of control

Cc1cc(NS(=O)(=O)c2ccc(Nc3ccnc4cc(Cl)ccc34)cc2)no1
inactive: [6] 92 % of control | [7] 86 % of control | [8] 92 % of control

C[n+]1ccc(Nc2ccc(O)cc2)c2ccc(Cl)cc21
inactive: dose: 12.5 mg/kg/injection, schedule: Q04DX003 (ip), vehicle: Klucel (hydroxypropylcellulose) (HPC) 100 % of control | dose: 25.0 mg/kg/injection, schedule: Q04DX003 (ip), vehicle: Klucel (hydroxypropylcellulose) (HPC) 116 % of control and 92 % of control | dose: 50.0 mg/kg/injection, schedule: Q01DX005 (ip), vehicle: saline + Tween-80 + alcohol 112 % of control | dose: 50.0 mg/kg/injection, schedule: Q04DX003 (ip), vehicle: Klucel (hydroxypropylcellulose) (HPC) 101 % of control and 95 % of control | dose: 100.0 mg/kg/injection, schedule: Q01DX005 (ip), vehicle: saline + Tween-80 + alcohol 110 % of control | [13] 109 % of control and 112 % of control | dose: 200.0 mg/kg/injection, schedule: Q01DX005 (ip), vehicle: saline + Tween-80 + alcohol 114 % of control | [14] 120 % of control and 94 % of control
